Experimental findings from US9399646B2 (Genentech, Inc., priority 2010, dated 2016) are described below.

For one assay, the system named is MCF-7 cells. Description: Breast cancer cell viability assay (CellTiter-Glo, 5 days). The class given is cell-based. Conditions: 5 days' compound exposure; for IC50: Homo sapiens, MCF7, 120 h. Here is the method:
MCF-7 cells were adjusted to a concentration of 20,000 cells per mL in RPMI containing 10% FBS and 20 mM HEPES. 16 microliters of the cell suspension (320 cells) was added to each well of a 384 well plate, and the cells were incubated overnight to allow the cells to adhere. The following day an eleven point, serial semilog dilution of each compound was added to the cells in 16 μL at a final concentration ranging from 0.3-0.000003 μM. After 5 days' compound exposure, 16 μL of CellTiter-GLo (Promega, Madison Wis.) was added to the cells the relative luminescence units (RLUs) of each well was determined CellTiter-Glo added to 32 μL of medium without cells was used to obtain a background value. The Percent viability of each sample was determined as follows: (RLU sample-RLU background/RLU untreated cells-RLU background)×100=% viability.
Background: Cellular ATP, detected with luciferase, serves as a proxy for viable cell number.

Another assay addresses T1, ER-α in MCF-7 cells (Homo sapiens, UniProt P03372).
T1 sequence (P03372 1-595): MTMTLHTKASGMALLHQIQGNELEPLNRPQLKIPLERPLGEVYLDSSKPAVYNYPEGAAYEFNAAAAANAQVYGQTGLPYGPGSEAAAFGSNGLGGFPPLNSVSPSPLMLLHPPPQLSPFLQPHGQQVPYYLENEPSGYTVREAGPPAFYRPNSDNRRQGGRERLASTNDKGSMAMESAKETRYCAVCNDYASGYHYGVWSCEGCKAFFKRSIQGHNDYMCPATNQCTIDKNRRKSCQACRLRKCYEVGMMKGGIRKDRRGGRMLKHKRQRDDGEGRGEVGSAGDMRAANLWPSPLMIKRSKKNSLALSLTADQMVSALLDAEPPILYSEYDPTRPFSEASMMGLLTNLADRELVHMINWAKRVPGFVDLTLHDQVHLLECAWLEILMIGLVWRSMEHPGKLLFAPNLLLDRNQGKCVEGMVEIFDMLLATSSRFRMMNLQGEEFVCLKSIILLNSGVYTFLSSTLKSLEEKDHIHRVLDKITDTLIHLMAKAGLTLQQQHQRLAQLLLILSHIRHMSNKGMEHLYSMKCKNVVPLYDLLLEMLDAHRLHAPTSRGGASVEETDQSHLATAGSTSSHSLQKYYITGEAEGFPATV
Description: Breast cancer cell ER-α in cell western assay (SP1). It is filed as cell-based. Particulars: 4 or 24 hr post compound addition; for Emax: MCF7, SP1 antibody, read-out: ER-α In Cell Western Assay (SP1) Max Response; for DC50: SP1 antibody, read-out: ER-α In Cell Western Assay (SP1) IC50. The arrangement: endogenous in cells; host or cells: MCF-7. How it is done:
MCF-7 cells were adjusted to a concentration of 200,000 cells per mL in RPMI containing 10% charcoal-stripped FBS and 20 mM HEPES. 16 microliters of the cell suspension (3200 cells) was added to each well of a poly-D-lysine 384 well plate, and the cells were incubated overnight to allow the cells to adhere. The following day an eleven point, serial semilog dilution of each compound was added to the cells in 16 μL at a final concentration ranging from 0.3-0.000003 μM. At 4 or 24 hr post compound addition, the cells were fixed (10% formalin in PBS) for 20 minutes. Cells were permeablized in PBS 0.1% Triton and blocked with LICOR blocking buffer (50 μl/well, 90°). The wells were then incubated overnight at 4° C. with SP1 rabbit monoclonal Ab (Thermo Scientific) diluted 1:1000 in LICOR blocking buffer/0.1% Tween-20. Wells which were treated with blocking buffer with Tween but no antibody were used as a background control. Wells were washed with 0.1% Tween-20/PBS and then incubated in goat anti-rabbit IRDye™ 800CW (LICOR Inc.; 1:1000) and DRAQ5 DNA dye (1:2000 for 2 mM stock) diluted in LICOR blocking buffer containing 0.1% Tween-20 and 0.01% SDS for 60 minutes. Cells were washed (50 μl/well, 5′ each) in 0.1% Tween-20/PBS. Plates were scanned on a LICOR Odyssey infrared imaging system. Integrated intensities in the 800 nm channel and 700 nm channel were measured to determine levels of ER and DNA respectively. Percent ER levels were determined as follows: (Integrated intensity 800 nm sample/integrated intensity 700 nm sample)/(Integrated intensity 800 nm untreated cells/integrated intensity 700 nm untreated cells)×100=% ER levels.

For orientation: IC50 means the concentration that gives 50% inhibition. Read a low IC50 as greater potency. For the molecule `CC/C(=C(/c1ccc(/C=C/C(=O)O)cc1)c1ccc2[nH]ncc2c1)c1ccnc(OC)c1` [Compound 236, (E)-3-(4-((E)-1-(1H-Indazol-5-yl)-2-(2-methoxypyridin-4-yl)but-1-en-1-yl)phenyl)acrylic acid], in the assay with MCF-7 cells, the “MCF7 Viability Assay Max Response” value was “++ (++ = a single % value ≧ 40%)” and the IC50 is at most 0.1 µM. Moreover, on ER-α in MCF-7 cells, the Emax is at least 40% and the DC50 was at most 0.1 µM.
`CC/C(=C(/c1ccc(/C=C/C(=O)O)cc1)c1ccc2scnc2c1)c1cccc(Oc2ccccn2)c1` [Compound 300, (E)-3-(4-((E)-1-(Benzo[d]thiazol-5-yl)-2-(3-(pyridin-2-yloxy)phenyl)but-1-en-1-yl)phenyl)acrylic acid]: in the assay on MCF-7 cells, the “MCF7 Viability Assay Max Response” value is “++ (++ = a single % value ≧ 40%)” and the IC50 is above 0.1 µM. On ER-α in MCF-7 cells, the Emax is at least 40% and the DC50 is at most 0.1 µM.
Take `CC/C(=C(/c1ccc(/C=C/C(=O)O)cc1)c1ccc2[nH]nnc2c1)c1ccccc1` [Compound 3, (E)-3-(4-((E)-1-(1H-Benzo[d][1,2,3]triazol-5-yl)-2-phenylbut-1-en-1-yl)phenyl)acrylic acid]: in the assay with MCF-7 cells, the “MCF7 Viability Assay Max Response” value is “++ (++ = a single % value ≧ 40%)” and the IC50 was at most 0.1 µM. Moreover, the Emax on ER-α in MCF-7 cells was at least 40%.
For `CCCCCCOc1ccc(/C(CC)=C(\c2ccc(/C=C/C(=O)O)cc2)c2ccc3[nH]ncc3c2)cc1` [Compound 357, (E)-3-(4-((E)-2-(4-(Hexyloxy)phenyl)-1-(1H-indazol-5-yl)but-1-en-1-yl)phenyl)acrylic acid], in the assay on MCF-7 cells, the “MCF7 Viability Assay Max Response” value was “++ (++ = a single % value ≧ 40%)” and the IC50 was above 0.1 µM. Moreover, at ER-α in MCF-7 cells, the Emax is at least 40% and the DC50 was above 0.1 µM.
With `CC/C(=C(/c1ccc(/C=C/C(=O)O)cc1)c1ccc2[nH]ncc2c1)c1cccc(Oc2ncccn2)c1` [Compound 363, (E)-3-(4-((E)-1-(1H-Indazol-5-yl)-2-(3-(pyrimidin-2-yloxy)phenyl)but-1-en-1-yl)phenyl)acrylic acid], in the assay with MCF-7 cells, the “MCF7 Viability Assay Max Response” value was “++ (++ = a single % value ≧ 40%)” and the half-inhibitory concentration (IC50) was at most 0.1 µM. In addition, on ER-α in MCF-7 cells, the Emax was at least 40% and the DC50 is at most 0.1 µM.
Regarding `CNC(=O)/C=C/c1ccc(/C(=C(\c2ccccc2)C2CCC2)c2ccc3[nH]ncc3c2)cc1` [Compound 412, (E)-3-(4-((E)-2-Cyclobutyl-1-(1H-indazol-5-yl)-2-phenylvinyl)phenyl)-N-methylacrylamide], in the assay on MCF-7 cells, the “MCF7 Viability Assay Max Response” value is recorded as “++ (++ = a single % value ≧ 40%)” and the IC50 was at most 0.1 µM. Also, on ER-α in MCF-7 cells, the Emax is at least 40% and the DC50 is at most 0.1 µM.
As for `CC/C(=C(/c1ccc(/C=C/C(=O)O)cc1)c1ccc2[nH]ncc2c1)c1ccc(-c2cnn(C)c2)cc1` [Compound 384, (E)-3-(4-((E)-1-(1H-Indazol-5-yl)-2-(4-(1-methyl-1H-pyrazol-4-yl)phenyl)but-1-en-1-yl)phenyl)acrylic acid], in the assay on MCF-7 cells, the “MCF7 Viability Assay Max Response” value is recorded as “++ (++ = a single % value ≧ 40%)” and the 50% inhibitory concentration (IC50) is above 0.1 µM. Besides, at ER-α in MCF-7 cells, the Emax is at least 40% and the DC50 is above 0.1 µM.
Take `CC/C(=C(/c1ccc(/C=C/C(=O)O)cc1)c1ccc2[nH]cnc2c1)c1ccccc1` [Compound 83, (E)-3-(4-((E)-1-(1H-Benzo[d]imidazol-5-yl)-2-phenylbut-1-en-1-yl)phenyl)acrylic acid]: in the assay on MCF-7 cells, the “MCF7 Viability Assay Max Response” value was “++ (++ = a single % value ≧ 40%)” and the IC50 is above 0.1 µM. For the same molecule, at ER-α in MCF-7 cells, the Emax is at least 40%.
As for `CC/C(=C(/c1ccc(CCC(=O)O)cc1)c1ccc2[nH]ncc2c1)c1ccccc1` [Compound 338, (E)-3-(4-(1-(1H-Indazol-5-yl)-2-phenylbut-1-en-1-yl)phenyl)propanoic acid], in the assay on MCF-7 cells, the “MCF7 Viability Assay Max Response” value was “++ (++ = a single % value ≧ 40%)” and the IC50 is above 0.1 µM. For the same molecule, at ER-α in MCF-7 cells, the Emax is at least 40% and the DC50 is at most 0.1 µM.
Take `CCOC(=O)n1ncc2cc(/C(=C(\CC)c3ccc(F)cc3Cl)c3ccc(/C=C/C(=O)O)cc3)ccc21` [Compound 406, (E)-3-(4-((E)-2-(2-Chloro-4-fluorophenyl)-1-(1-(ethoxycarbonyl)-1H-indazol-5-yl)but-1-en-1-yl)phenyl)acrylic acid]: in the assay with MCF-7 cells, the “MCF7 Viability Assay Max Response” value is reported as “++ (++ = a single % value ≧ 40%)” and the IC50 is at most 0.1 µM. Moreover, at ER-α in MCF-7 cells, the Emax is at least 40% and the DC50 was at most 0.1 µM.
Take `CC/C(=C(/c1ccc(/C=C/C(=O)NS(=O)(=O)c2ccccc2)cc1)c1ccc2[nH]ncc2c1)c1ccc(F)cc1Cl` [Compound 428, (E)-3-(4-((E)-2-(2-Chloro-4-fluorophenyl)-1-(1H-indazol-5-yl)but-1-en-1-yl)phenyl)-N-(phenylsulfonyl)acrylamide]: in the assay on MCF-7 cells, the “MCF7 Viability Assay Max Response” value was “++ (++ = a single % value ≧ 40%)” and the IC50 was at most 0.1 µM. Besides, on ER-α in MCF-7 cells, the Emax is at least 40% and the DC50 was at most 0.1 µM.
On to `CC/C(=C(/c1ccc(/C=C/C(=O)O)cc1)c1ccc2scnc2c1)c1ccc(F)cc1Cl` [Compound 275, (E)-3-(4-((E)-1-(Benzo[d]thiazol-5-yl)-2-(2-chloro-4-fluorophenyl)but-1-en-1-yl)phenyl)acrylic acid], for which, in the assay with MCF-7 cells, the “MCF7 Viability Assay Max Response” value is “++ (++ = a single % value ≧ 40%)” and the IC50 was at most 0.1 µM. Moreover, on ER-α in MCF-7 cells, the Emax is at least 40% and the DC50 is at most 0.1 µM.
On to `CC/C(=C(/c1ccc(/C=C/C(=O)O)cc1)c1ccc2[nH]ncc2c1)c1cccc(-n2cccn2)c1` [Compound 252, (E)-3-(4-((E)-2-(3-(1H-Pyrazol-1-yl)phenyl)-1-(1H-indazol-5-yl)but-1-en-1-yl)phenyl)acrylic acid], for which, in the assay on MCF-7 cells, the “MCF7 Viability Assay Max Response” value is “++ (++ = a single % value ≧ 40%)” and the IC50 was above 0.1 µM. Moreover, on ER-α in MCF-7 cells, the Emax was at least 40% and the DC50 was at most 0.1 µM.
In the case of `CC/C(=C(/c1ccc(/C=C/C(=O)O)cc1)c1ccc2[nH]ncc2c1F)c1cccc(Oc2cnccn2)c1` [Compound 377, (E)-3-(4-((E)-1-(4-Fluoro-1H-indazol-5-yl)-2-(3-(pyrazin-2-yloxy)phenyl)but-1-en-1-yl)phenyl)acrylic acid], in the assay with MCF-7 cells, the “MCF7 Viability Assay Max Response” value is “++ (++ = a single % value ≧ 40%)” and the IC50 is at most 0.1 µM. For the same molecule, at ER-α in MCF-7 cells, the Emax is at least 40% and the DC50 is at most 0.1 µM.
On to `CC/C(=C(/c1ccc(/C=C/C(=O)NS(C)(=O)=O)cc1)c1ccc2[nH]ncc2c1)c1ccccc1` [Compound 423, (E)-3-(4-((E)-1-(1H-Indazol-5-yl)-2-phenylbut-1-en-1-yl)phenyl)-N-(methylsulfonyl)acrylamide], for which, in the assay with MCF-7 cells, the “MCF7 Viability Assay Max Response” value was “++ (++ = a single % value ≧ 40%)” and the IC50 is at most 0.1 µM. On ER-α in MCF-7 cells, the Emax is at least 40% and the DC50 was at most 0.1 µM.
On to `CC/C(=C(/c1ccc(/C=C/C(=O)O)cc1)c1ccc2scnc2c1)c1ccccc1` [Compound 141, (E)-3-(4-((E)-1-(Benzo[d]thiazol-5-yl)-2-phenylbut-1-en-1-yl)phenyl)acrylic acid], for which, in the assay on MCF-7 cells, the “MCF7 Viability Assay Max Response” value is given as “++ (++ = a single % value ≧ 40%)” and the concentration for half-maximal inhibition (IC50) is at most 0.1 µM. In addition, at ER-α in MCF-7 cells, the Emax is at least 40% and the DC50 is at most 0.1 µM.
